Molecules are shown by their SMILES. pKi: −log10 of the molar value. Active and inactive are the calls of the source. The calls are words filed in the database; no cut-off is given here.

We go through twelve compounds from ChEMBL document CHEMBL5236594, “Novel α7 nicotinic acetylcholine receptor modulators as potential antitussive agents” (Bioorg Med Chem Lett, 2023).

For series [1], the target named is Neuronal acetylcholine receptor subunit alpha-7 (Homo sapiens, UniProt P36544). Nature of the series: Binding affinity to alpha7 nAChR (unknown origin) assessed as dissociation constant.
Sequence of Neuronal acetylcholine receptor subunit alpha-7 (P36544 whole entry): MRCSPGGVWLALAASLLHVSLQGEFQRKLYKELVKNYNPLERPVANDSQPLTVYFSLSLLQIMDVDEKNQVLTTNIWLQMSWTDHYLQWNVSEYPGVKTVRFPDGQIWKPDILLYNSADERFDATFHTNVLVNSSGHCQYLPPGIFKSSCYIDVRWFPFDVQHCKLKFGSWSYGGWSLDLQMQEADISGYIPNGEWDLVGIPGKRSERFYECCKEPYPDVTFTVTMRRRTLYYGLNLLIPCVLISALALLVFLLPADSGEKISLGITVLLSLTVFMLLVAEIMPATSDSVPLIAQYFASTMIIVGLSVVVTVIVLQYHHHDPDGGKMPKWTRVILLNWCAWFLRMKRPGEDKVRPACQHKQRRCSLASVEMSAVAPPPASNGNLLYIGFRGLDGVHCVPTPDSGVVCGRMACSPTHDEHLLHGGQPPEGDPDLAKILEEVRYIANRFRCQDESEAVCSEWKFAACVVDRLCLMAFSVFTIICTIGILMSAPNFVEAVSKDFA
Series [2] has as its target Neuronal acetylcholine receptor; alpha3/beta4 (Homo sapiens, UniProt P30926+P32297). The series can be described thus: Binding affinity to alpha3beta4 nAChR (unknown origin) assessed as dissociation constant. Format: protein-complex assay.
Series [3] concerns the target Neuronal acetylcholine receptor; alpha4/beta2 (Homo sapiens, UniProt P17787+P43681). The series can be described thus: Binding affinity to alpha4beta2 nAChR (unknown origin) assessed as dissociation constant. Format: protein-complex assay.
The subject of series [4] is Cavia porcellus. The series can be described thus: Anti-tussive activity in guniea pig cough model assessed as suppression of cough frequency at 3 to 30 mg/kg, ip. Format: functional, organism-based. The conditions noted are these: dose 3-30 mg/kg.
The test system of series [5] is Cavia porcellus. The series can be described thus: Anti-tussive activity in guniea pig cough model assessed as reduction in cumulative number of coughs at 3 to 30 mg/kg, ip. Format: functional, organism-based. The conditions noted are these: dose 3-30 mg/kg.
In series [6] the test system is Cavia porcellus. The series can be described thus: Anti-tussive activity in guniea pig cough model assessed as reduction in cumulative number of coughs at 30 mg/kg, ip. Format: functional, organism-based.
The subject of series [7] is Cavia porcellus. Nature of the series: Anti-tussive activity in citric acid-induced guniea pig cough model assessed as reduction in cough count at 30 mg/kg, ip. Format: functional, organism-based.
Series [8] is described as follows: Half life in ip dosed guinea pig. The following applies: in vivo. Format: ADME, organism-based, Cavia porcellus.
For series [9], the system named is Cavia porcellus. Nature of the series: Anti-tussive activity in guniea pig cough model assessed as reduction in cumulative number of coughs at 0.4 mg/kg, INH. Format: functional, organism-based.
Series [10] concerns Cavia porcellus. The series can be described thus: Anti-tussive activity in guniea pig cough model assessed as reduction in cumulative number of coughs at 1 to 2 mg/kg, IT. Format: functional, organism-based. The conditions noted are these: dose 1-2 mg/kg.
Series [11] has as its system Cavia porcellus. The series can be described thus: Anti-tussive activity in guniea pig cough model assessed as suppression of cough frequency at 1 to 9.5 mg/kg, ip. Format: functional, organism-based. The following applies: dose 1-9.5 mg/kg.
Series [12] concerns Cavia porcellus. Nature of the series: Anti-tussive activity in guniea pig cough model assessed as reduction in cumulative number of coughs at 1 to 9.5 mg/kg, ip. Format: functional, organism-based. The conditions noted are these: dose 1-9.5 mg/kg.
Series [13] relates to Cavia porcellus. The series can be described thus: Anti-tussive activity in guniea pig cough model assessed as reduction in cumulative number of coughs at 9.5 mg/kg, po. Format: functional, organism-based.
The subject of series [14] is Cavia porcellus. The series can be described thus: Anti-tussive activity in guniea pig cough model assessed as reduction in cough inhibition period at 0.1 to 0.4 mg/kg, INH. Format: functional, organism-based. The following applies: dose 0.1-0.4 mg/kg.
The subject of series [15] is Cavia porcellus. The series can be described thus: Anti-tussive activity in guniea pig cough model assessed as reduction in cough inhibition period at 1 to 9.5 mg/kg, ip. Format: functional, organism-based. The conditions noted are these: dose 1-9.5 mg/kg.
The nature of series [16]: Half life in po dosed guinea pig. Format: ADME, organism-based, Cavia porcellus. The conditions noted are these: in vivo.
Series [17] can be described thus: Half life in INSULFFLATION dosed guinea pig. Format: ADME, organism-based, Cavia porcellus. The conditions noted are these: in vivo, inhaled or intranasal.

Sequence of Neuronal acetylcholine receptor; alpha4/beta2 (P17787 whole entry): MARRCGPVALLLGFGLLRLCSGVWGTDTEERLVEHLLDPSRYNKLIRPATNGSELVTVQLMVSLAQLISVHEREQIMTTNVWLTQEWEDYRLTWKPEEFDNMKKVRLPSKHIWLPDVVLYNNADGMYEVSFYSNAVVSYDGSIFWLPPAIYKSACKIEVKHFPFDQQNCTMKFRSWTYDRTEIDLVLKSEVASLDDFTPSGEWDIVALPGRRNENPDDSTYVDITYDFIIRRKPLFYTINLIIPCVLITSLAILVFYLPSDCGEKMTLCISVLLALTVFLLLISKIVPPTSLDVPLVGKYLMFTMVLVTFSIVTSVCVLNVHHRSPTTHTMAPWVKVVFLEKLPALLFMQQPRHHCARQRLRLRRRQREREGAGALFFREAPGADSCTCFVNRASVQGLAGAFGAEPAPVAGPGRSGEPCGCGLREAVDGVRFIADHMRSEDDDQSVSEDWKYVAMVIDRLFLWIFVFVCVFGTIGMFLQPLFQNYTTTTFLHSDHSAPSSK
Sequence of Neuronal acetylcholine receptor; alpha4/beta2 (P43681 whole entry): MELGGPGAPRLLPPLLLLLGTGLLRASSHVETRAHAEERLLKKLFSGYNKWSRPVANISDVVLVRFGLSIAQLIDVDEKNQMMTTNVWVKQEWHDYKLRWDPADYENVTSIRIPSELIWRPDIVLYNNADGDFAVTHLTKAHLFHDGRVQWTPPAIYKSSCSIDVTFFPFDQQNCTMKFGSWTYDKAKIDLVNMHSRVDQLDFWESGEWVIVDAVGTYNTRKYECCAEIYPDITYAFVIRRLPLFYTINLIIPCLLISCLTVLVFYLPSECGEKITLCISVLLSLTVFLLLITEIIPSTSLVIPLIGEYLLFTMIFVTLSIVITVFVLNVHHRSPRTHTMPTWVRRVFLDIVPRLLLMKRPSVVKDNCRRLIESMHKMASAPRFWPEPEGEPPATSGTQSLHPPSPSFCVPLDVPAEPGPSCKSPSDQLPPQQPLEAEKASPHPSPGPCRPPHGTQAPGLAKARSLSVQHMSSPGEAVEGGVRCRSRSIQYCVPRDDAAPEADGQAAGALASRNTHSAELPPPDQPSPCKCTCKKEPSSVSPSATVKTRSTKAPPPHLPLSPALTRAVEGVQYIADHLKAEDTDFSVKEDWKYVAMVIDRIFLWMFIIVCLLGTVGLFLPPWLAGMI
Sequence of Neuronal acetylcholine receptor; alpha3/beta4 (P30926 whole entry): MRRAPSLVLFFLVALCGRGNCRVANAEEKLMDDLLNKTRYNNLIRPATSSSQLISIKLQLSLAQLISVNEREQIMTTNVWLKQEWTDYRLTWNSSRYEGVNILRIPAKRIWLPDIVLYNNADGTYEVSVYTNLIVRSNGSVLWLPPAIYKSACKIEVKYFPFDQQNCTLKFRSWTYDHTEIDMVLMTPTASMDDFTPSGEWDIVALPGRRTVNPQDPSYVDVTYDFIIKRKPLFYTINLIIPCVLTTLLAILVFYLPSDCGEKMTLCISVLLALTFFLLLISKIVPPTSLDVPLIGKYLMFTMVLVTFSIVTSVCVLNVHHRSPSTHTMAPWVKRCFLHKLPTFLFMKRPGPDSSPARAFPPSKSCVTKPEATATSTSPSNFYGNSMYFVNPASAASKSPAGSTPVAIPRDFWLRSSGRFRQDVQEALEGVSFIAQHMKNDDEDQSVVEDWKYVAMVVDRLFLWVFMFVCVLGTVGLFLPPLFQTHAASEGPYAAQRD
Sequence of Neuronal acetylcholine receptor; alpha3/beta4 (P32297 whole entry): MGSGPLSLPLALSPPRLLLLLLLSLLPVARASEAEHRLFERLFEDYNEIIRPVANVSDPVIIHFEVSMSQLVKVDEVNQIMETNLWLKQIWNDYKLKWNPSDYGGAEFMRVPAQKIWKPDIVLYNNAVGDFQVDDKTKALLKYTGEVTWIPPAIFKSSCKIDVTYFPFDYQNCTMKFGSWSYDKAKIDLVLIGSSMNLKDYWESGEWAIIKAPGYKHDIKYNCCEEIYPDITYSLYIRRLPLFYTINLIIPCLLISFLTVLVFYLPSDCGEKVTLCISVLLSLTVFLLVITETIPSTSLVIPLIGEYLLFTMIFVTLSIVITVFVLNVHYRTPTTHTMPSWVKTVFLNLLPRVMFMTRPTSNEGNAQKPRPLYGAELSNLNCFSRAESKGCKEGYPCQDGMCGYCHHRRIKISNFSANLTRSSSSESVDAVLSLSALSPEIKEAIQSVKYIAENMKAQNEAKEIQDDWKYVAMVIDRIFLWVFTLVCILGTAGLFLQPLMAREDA

For the compound `c1cncc(C[C@@H]2[C@@H](Oc3ccc(-c4ccc[nH]4)nn3)C3CCN2CC3)c1` (relative stereo), the pKi in series [1] is 7.38; in [2] it was 6.14; in [3] it was 6.70. Besides, the outcome in the series with Cavia porcellus [4] was Active. The outcome in the series with Cavia porcellus [5] was inactive.
As to `c1cncc(C[C@@H]2[C@@H](Oc3cc4ccccc4cn3)C3CCN2CC3)c1` (relative stereo), the results for the pKi in series [1], in series [2] and in [3] were 6.00, 5.67 and 5.73, respectively.
On to `COc1ccc2c3c1O[C@H]1[C@@H](O)C=C[C@H]4[C@@H](C2)N(C)CC[C@@]341`, for which the result in the series on Cavia porcellus [6] was Active.
In the case of `c1ccc(-c2ccc(O[C@@H]3C4CCN(CC4)[C@H]3Cc3cccnc3)nn2)cc1` (relative stereo), the pKi in [1] was 7.00; in series [2], 7.10; in series [3], 6.92.
As to `c1cncc(C[C@@H]2[C@@H](Oc3ccc4ccccc4n3)C3CCN2CC3)c1` (relative stereo), the values for the pKi in series [2] and in series [3] were 6.10 and 6.85, respectively.
Take `Nc1nc2ccc(-c3ccc(O[C@H]4C5CCN(CC5)[C@@H]4Cc4cccnc4)nn3)cc2s1` (relative stereo): the values for the pKi in series [1], in [2] and in series [3] were 7.73, 5.97 and 7.30, respectively.
Turning to `c1cncc(C[C@@H]2[C@H](Oc3ccc(-c4ccc5[nH]ccc5c4)nn3)C3CCN2CC3)c1` (relative stereo), the pKi in series [2] is 6.70; in series [3], 7.76.
`c1cncc(C[C@H]2[C@H](Oc3ccc(-c4ccc5[nH]ccc5c4)nn3)C3CCN2CC3)c1` (relative stereo): the pKi in series [1] was 8.85; in [2], 6.14; in [3], 7.14. The result with Cavia porcellus [7] was Active.
For the compound `c1ccc(-c2nnc(O[C@H]3C4CCN(CC4)[C@@H]3Cc3cccnc3)s2)cc1` (relative stereo), the pKi in [2] is 6.47; in series [3] it was 6.48.
With `c1cncc(C[C@H]2[C@H](Oc3ccc(-c4ccc5[nH]ccc5c4)cn3)C3CCN2CC3)c1`, the pKi in [1] is 7.24; in series [2], 6.11; in series [3] it was 6.33.
For the compound `c1cncc(C[C@@H]2[C@@H](Oc3nnc(-c4ccc5[nH]ccc5c4)s3)C3CCN2CC3)c1` (relative stereo), the figures for the half-life in series [8], in series [16] and in series [17] were 1.7 h, 1.5 h and 3.2 h, respectively. The result with Cavia porcellus [9], in the series with Cavia porcellus [10], in the series on Cavia porcellus [11], in the series on Cavia porcellus [12], in the series with Cavia porcellus [14] and in the series on Cavia porcellus [15] was Active. Besides, the pKi is 6.36 in [2] and 6.66 in [3]. For the same compound, the result with Cavia porcellus [13] was inactive.
Turning to `c1cncc(C[C@H]2[C@H](Oc3cnc(-c4ccc5[nH]ccc5c4)cn3)C3CCN2CC3)c1` (relative stereo), the values for the pKi in series [1], in series [2] and in series [3] were 6.62, 6.40 and 6.64, respectively.

The pKi is the Ki on a negative log10 scale, so that one unit is a factor of ten. The half-life is how long it takes for the measured level to halve. Read a low half-life as rapid decline.
